{"source": "patent US8927587B2", "about": "“Chemical compounds” (Pfizer Limited, priority 2012, dated 2015)"}
{"molecular_target": "T1, hNav1.8 (Homo sapiens, UniProt Q9Y5Y9)", "T1 construct": "host or cells: HEK cells, stably transfected", "T1 sequence (Q9Y5Y9 whole entry)": "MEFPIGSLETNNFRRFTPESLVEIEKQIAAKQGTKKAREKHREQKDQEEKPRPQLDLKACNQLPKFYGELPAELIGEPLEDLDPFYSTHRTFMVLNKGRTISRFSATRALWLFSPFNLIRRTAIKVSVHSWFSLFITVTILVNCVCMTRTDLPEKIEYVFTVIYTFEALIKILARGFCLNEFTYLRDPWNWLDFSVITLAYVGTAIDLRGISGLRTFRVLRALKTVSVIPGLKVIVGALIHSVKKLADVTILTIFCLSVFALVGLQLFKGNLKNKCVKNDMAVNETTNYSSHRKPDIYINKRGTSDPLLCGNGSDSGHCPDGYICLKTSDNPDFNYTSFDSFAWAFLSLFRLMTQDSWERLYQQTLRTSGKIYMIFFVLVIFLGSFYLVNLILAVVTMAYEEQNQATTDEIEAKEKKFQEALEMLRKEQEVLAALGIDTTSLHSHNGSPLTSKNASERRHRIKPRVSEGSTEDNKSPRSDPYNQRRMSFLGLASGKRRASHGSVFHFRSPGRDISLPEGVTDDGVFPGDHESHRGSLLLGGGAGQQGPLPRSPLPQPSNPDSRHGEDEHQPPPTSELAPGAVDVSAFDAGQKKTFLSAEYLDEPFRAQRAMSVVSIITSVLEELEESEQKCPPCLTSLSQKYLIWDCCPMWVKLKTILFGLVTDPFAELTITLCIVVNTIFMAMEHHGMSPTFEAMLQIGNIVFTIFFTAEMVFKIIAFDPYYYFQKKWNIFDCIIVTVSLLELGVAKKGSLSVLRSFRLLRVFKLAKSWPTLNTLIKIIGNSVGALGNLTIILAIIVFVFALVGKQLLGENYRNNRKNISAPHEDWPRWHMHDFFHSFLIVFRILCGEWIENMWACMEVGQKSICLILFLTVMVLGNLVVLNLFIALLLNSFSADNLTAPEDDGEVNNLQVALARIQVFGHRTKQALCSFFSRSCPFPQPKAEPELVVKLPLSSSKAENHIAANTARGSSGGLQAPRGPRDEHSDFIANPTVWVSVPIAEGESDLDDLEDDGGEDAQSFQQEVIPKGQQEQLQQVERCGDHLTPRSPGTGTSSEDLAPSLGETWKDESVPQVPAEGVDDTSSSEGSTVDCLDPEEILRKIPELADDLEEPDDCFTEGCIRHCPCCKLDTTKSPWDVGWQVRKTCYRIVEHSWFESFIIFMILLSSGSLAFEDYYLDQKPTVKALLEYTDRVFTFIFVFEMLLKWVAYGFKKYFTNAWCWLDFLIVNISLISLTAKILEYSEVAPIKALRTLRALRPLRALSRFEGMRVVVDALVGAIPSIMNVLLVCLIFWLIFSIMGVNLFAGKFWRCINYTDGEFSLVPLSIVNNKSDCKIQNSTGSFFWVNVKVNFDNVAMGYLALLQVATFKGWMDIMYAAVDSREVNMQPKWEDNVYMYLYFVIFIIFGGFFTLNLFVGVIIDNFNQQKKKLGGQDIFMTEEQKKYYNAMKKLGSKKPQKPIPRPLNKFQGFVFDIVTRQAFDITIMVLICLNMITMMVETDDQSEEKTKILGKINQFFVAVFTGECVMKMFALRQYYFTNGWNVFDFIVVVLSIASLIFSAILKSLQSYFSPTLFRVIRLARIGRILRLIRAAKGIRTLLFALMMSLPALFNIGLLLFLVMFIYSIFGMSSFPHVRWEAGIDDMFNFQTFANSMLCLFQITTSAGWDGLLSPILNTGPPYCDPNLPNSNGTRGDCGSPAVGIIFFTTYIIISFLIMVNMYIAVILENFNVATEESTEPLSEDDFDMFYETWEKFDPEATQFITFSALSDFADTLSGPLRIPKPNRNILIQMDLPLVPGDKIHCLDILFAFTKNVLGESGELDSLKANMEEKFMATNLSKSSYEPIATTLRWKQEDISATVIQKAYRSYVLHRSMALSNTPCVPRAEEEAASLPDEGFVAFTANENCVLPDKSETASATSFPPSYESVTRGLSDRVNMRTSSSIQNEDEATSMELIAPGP", "assay": "hNav1.8 whole-cell patch-clamp electrophysiology (conventional or PatchXpress 7000) in stably transfected HEK cells", "format": "cell-based", "conditions": "estimated IC50 calculated from single point % inhibition; HEK cells expressing hNav1.8; 8 sec prepulse to V1/2, 20 msec step to 0 mV; average of replicates; read-out: Nav1.8 EIC50", "procedure,_shortened": "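Whole-cell voltage clamp at 22-24 °C in HEK cells stably expressing hNav1.8, manually or on PatchXpress. Current evoked by 20 msec step to 0 mV after 8 s prepulse to each cell's inactivation V1/2; single-concentration % inhibition converted to estimated IC50, using only 20-80% inhibition values, averaged over replicates.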", "units": {"IC50": "nM"}}
{"smiles": "C[C@@H](C(N)=O)[C@H](N)c1nc2c(Cl)c(-c3ccc(C#N)cc3)ccc2[nH]1", "note": "[Example 111, (2R,3S)-3-Amino-3-[4-chloro-5-(4-cyanophenyl)-1H-benzimidazol-2-yl]-2-methylpropanamide]", "IC50": 190}
{"smiles": "CC[C@H](N)c1nc2cc(CC(C)(C)C)ccc2[nH]1", "note": "[Example 112, (1S)-1-[5-(2,2-Dimethylpropyl)-1H-benzimidazol-2-yl]propan-1-amine]", "IC50": 187}
{"smiles": "CC[C@H](N)c1nc2cc(C3CCC3)ccc2[nH]1", "note": "[Example 113, 1-(5-Cyclobutyl-1H-benzimidazol-2-yl)propylamine]", "IC50": 749}
{"smiles": "N#Cc1ccc(-c2ccc3[nH]c(C4(N)Cc5ccccc5C4)nc3c2)cc1F", "note": "[Example 114, 4-[2-(2-Amino-2,3-dihydro-1H-inden-2-yl)-1H-benzimidazol-5-yl]-2-fluorobenzonitrile]", "IC50": 27.8}
{"smiles": "CC(C)(C)Cc1ccc2[nH]c(C(C)(N)CO)nc2c1", "note": "(stereo not drawn) [Example 115, 2-Amino-2-[6-(2,2-dimethylpropyl)-1H-benzimidazol-2-yl]propan-1-ol]", "IC50": 278}
{"smiles": "CC(C)(C)Cc1ccc2[nH]c(C3(N)Cc4ccccc4C3)nc2c1", "note": "[Example 116, 2-[6-(2,2-Dimethylpropyl)-1H-benzimidazol-2-yl]-2,3-dihydro-1H-inden-2-amine]", "IC50": 222}
{"smiles": "N#Cc1ccc(-c2ccc3[nH]c([C@@H](N)CC(N)=O)nc3c2)cc1F", "note": "[Example 117, (3S)-3-Amino-3-[5-(4-cyano-3-fluorophenyl)-1H-benzimidazol-2-yl]propanamide]", "IC50": 2490}
{"smiles": "CC(C)(C)Cc1ccc2[nH]c([C@@H](N)CC(N)=O)nc2c1", "note": "[Example 118, (3S)-3-Amino-3-[5-(2,2-dimethylpropyl)-1H-benzimidazol-2-yl]propanamide]", "IC50": 348}
{"smiles": "N#Cc1ccc(-c2ccc3[nH]c([C@@H](N)CC(N)=O)nc3c2)c(Cl)c1", "note": "[Example 119, (3S)-3-Amino-3-[5-(2-chloro-4-cyanophenyl)-1H-benzimidazol-2-yl]propanamide]", "IC50": 671}
{"smiles": "CO[C@H](C)[C@H](N)c1nc2c(Cl)c(-c3ccc(C#N)c(F)c3)ccc2[nH]1", "note": "[Example 120, 4-{2-[(1R,2R)-1-Amino-2-methoxypropyl]-4-chloro-1H-benzimidazol-5-yl}-2-fluorobenzonitrile]", "IC50": 88.5}
{"smiles": "C[C@@H](O)[C@H](N)c1nc2c(Cl)c(-c3ccc(C#N)c(F)c3)ccc2[nH]1", "note": "[Example 121, 4-{2-[(1R,2R)-1-Amino-2-hydroxypropyl]-4-chloro-1H-benzimidazol-5-yl}-2-fluorobenzonitrile]", "IC50": 3050}
{"smiles": "C[C@@H](O)[C@H](N)c1nc2cc(-c3ccc(C#N)cc3Cl)ccc2[nH]1", "note": "[Example 122, 4-{2-[(1R,2R)-1-Amino-2-hydroxypropyl]-1H-benzimidazol-6-yl}-3-chlorobenzonitrile]", "IC50": 326}
{"smiles": "CO[C@H](C)[C@H](N)c1nc2cc(C(C)C)ccc2[nH]1", "note": "[Example 123, (1R,2R)-2-Methoxy-1-[5-(propan-2-yl)-1H-benzimidazol-2-yl]propan-1-amine]", "IC50": 1080}
{"smiles": "CC(C)c1ccc2[nH]c([C@@H](N)[C@H](O)C(C)C)nc2c1", "note": "[Example 125, (1R,2R)-1-Amino-3-methyl-1-[5-(propan-2-yl)-1H-benzimidazol-2-yl]butan-2-ol]", "IC50": 2220}
{"smiles": "CC[C@@H](O)[C@H](N)c1nc2cc(C(C)C)ccc2[nH]1", "note": "[Example 126, (1R,2R)-1-Amino-1-[5-(propan-2-yl)-1H-benzimidazol-2-yl]butan-2-ol]", "IC50": 967}
{"smiles": "CO[C@@H](C)[C@H](N)c1nc2cc(C(C)C)ccc2[nH]1", "note": "[Example 127, (1R,2S)-2-Methoxy-1-[5-(propan-2-yl)-1H-benzimidazol-2-yl]propan-1-amine]", "IC50": 2770}
{"smiles": "CO[C@@H](C)[C@H](N)c1nc2cc(C(C)(C)C)ccc2[nH]1", "note": "[Example 128, (1R,2S)-1-(5-tert-Butyl-1H-benzimidazol-2-yl)-2-methoxypropan-1-amine]", "IC50": 368}
{"smiles": "CC(C)(C)c1ccc2[nH]c([C@@H]3CCN3)nc2c1", "note": "[Example 129, 2-[(2S)-Azetidin-2-yl]-5-tert-butyl-1H-benzimidazole]", "IC50": 510}
